Data on one compound can be found in article PMC7439407 (Science Advances, 2020).

This assay addresses arginine repressor ArgR. Kind of assay: SPR. The format is binding, Staphylococcus aureus.

As to `O=c1oc2ccccc2c(O)c1C(c1ccc(Cl)c(Cl)c1)c1c(O)c2ccccc2oc1=O` [DCH, 3,3′-(3,4-dichlorobenzylidene)-bis-(4-hydroxycoumarin)], the dissociation constant (Kd) is 82 nM.

One may read the Kd as the concentration at which binding is half-saturated. High values mean weaker binding, low ones tighter binding.
